This note sets out measurements from PMC9706020, “Isovitexin Is a Direct Inhibitor of Staphylococcus aureus Coagulase” (Journal of Microbiology and Biotechnology, 2021).

The structures appear in SMILES notation.

The target of experiment [1] is T1, S. aureus coagulase (Coa); 6×His-Coa; WT-Coa (Staphylococcus aureus, UniProt Q2G1D3).
T1 construct: gene SAOUHSC_00192; 6×His-tagged Coa from pET15b-Coa, expressed in E. coli BL21(DE3), Ni-NTA purified
Put plainly: plate coagulation assay (agarose, fibrinogen, rabbit plasma). Type of experiment: biochemical. Particulars: 2.5 mg/ml Coa; 37 °C overnight; rabbit plasma as prothrombin source.

Experiment [2] deals with T1, S. aureus coagulase (Coa); 6×His-Coa; WT-Coa. The experiment can be described thus: intrinsic fluorescence quenching. Type of experiment: binding.
The target in experiment [3] is T2, S. aureus coagulase (Coa); 6×His-Coa; WT-Coa (Staphylococcus aureus, UniProt Q2G1D3, N267A).
T2 construct: gene SAOUHSC_00192
Put plainly: biochemical. The text has this: (§1) intrinsic fluorescence quenching on S. aureus coagulase (Coa); 6×His-Coa; WT-Coa

The target of experiment [4] is T3, S. aureus coagulase (Coa); 6×His-Coa; WT-Coa (Staphylococcus aureus, UniProt Q2G1D3, P268A).
T3 construct: gene SAOUHSC_00192
Put plainly: biochemical.
Description: as §1

The target of experiment [5] is T4, S. aureus coagulase (Coa); 6×His-Coa; WT-Coa (Staphylococcus aureus, UniProt Q2G1D3, V191A).
T4 construct: gene SAOUHSC_00192
Put plainly: biochemical.
Description: as §1

Experiment [6] concerns the target T5, S. aureus coagulase (Coa); 6×His-Coa; WT-Coa (Staphylococcus aureus, UniProt Q2G1D3, Y188A).
T5 construct: gene SAOUHSC_00192
Put plainly: biochemical.
Description: as §1

In general, Kd refers to the constant that tells how readily two partners part at equilibrium. Low readings indicate higher affinity, high ones lower affinity. In the case of `O=c1cc(-c2ccc(O)cc2)oc2cc(O)c([C@@H]3O[C@H](CO)[C@@H](O)[C@H](O)[C@H]3O)c(O)c12` [isovitexin, apigenin-6-C-β-glucopyranoside], in experiment [1], the “diameter of coagulation zone, % of control, at 128 μg/ml” value amounted to 47.50%. The Kd was 10 µM in experiment [2]; 12.4 µM in experiment [3]; 19.4 µM in experiment [4]; 23 µM in experiment [5]; 11.4 µM in experiment [6].
